US7402610B2, “Carbonyl compound containing long-chain branched alkyl group” (Idemitsu Kosan Co., Ltd., priority 2004, dated 2008)

Tests used:
Assay type in all cases: physicochemical
[1] = Low temperature fluidity on cooling; settings: cooled to −20° C.
Pour point, JIS K2269 = experiment: Pour point, JIS K2269
Description: The pour point of 3-octyl-tridecanoic acid was measured in accordance with JIS K2269. The pour point was determined to be −37° C. On the other hand, the pour point of a similar compound isostearic acid (2-n-heptylundecanoic acid) was −20° C. (“14303 Chemical Products”, The Chemical Daily Co., Ltd.). Another similar compound 2-octyldodecanoic acid was a solid having a melting point of 35° C.
The pour point which indicates the characteristics of the ester of the invention was measured in accordance with JIS K2269.

[2] = Oxidation stability test, JIS K2514, kinematic viscosity before and after heating; settings: for Change in kinematic viscosity (at 40° C.) / Change in kinematic viscosity (at 100° C.): after/before heating at 140° C. for 24 hours
Description: The oxidation stability of the above synthesized triester was tested and the viscosity before and after testing was measured. The oxidation stability test was conducted in accordance with JIS K2514, wherein the kinematic viscosity was measured at 40° C. and 100° C. after heating for 24 hours at 140° C. in the presence of copper and steel catalysts. The compounds showing a small change (increase) in kinematic viscosity were regarded as excelling in oxidation stability.

[3] = Loss on heat (plasticizer evaluation), JIS K6751-4; settings: heating at 125° C. for three hours
Description: As the plasticizer evaluation, loss on heat was evaluated. In accordance with JIS K6751-4, the decrease in amount after heating at 125° C. for three hours was used as the heating loss.

[4] = after heating at 140° C. for 24 hours, copper and steel catalysts

Row | Compound | Fluidity when cooled [1] | Pour point (Pour point, JIS K2269) | Kinematic viscosity at 40° C. [2, 4] [mm^2/s] | Kinematic viscosity at 100° C. [2, 4] [mm^2/s] | Change in kinematic viscosity (at 40° C.) [2] | Change in kinematic viscosity (at 100° C.) [2] | Kinematic viscosity at 40° C. ([2]; before heating) [mm^2/s] | Kinematic viscosity at 100° C. ([2]; before heating) [mm^2/s] | Decrease in amount after heating (%) [3] [%]
1 | CCCCCCCCCCC(CC=O)CCCCCCCC (centres unmarked) [Example 3, 3-octyl-tridecanal] | has the fluidity |  |  |  |  |  |  |  | 
2 | CCCCCCCCCCC(CCCCCCCC)CC(=O)O (centres unmarked) [Example 2, 3-octyl-tridecanoic acid] | did not decrease | −37 °C |  |  |  |  |  |  | 
3 | trimethylolpropane trioleate [Comparative Example 2, reference compound] |  | −47.5 °C | 60.91 | 11.24 | 1.27 | 1.16 | 47.96 | 9.66 | 
4 | trimethylolpropane tri(3-octyl-tridecanoate) [Example 4] |  | −50 or less ° C. | 67.28 | 10.24 | 1.07 | 1.03 | 62.76 | 9.95 | 
5 | CCCCCCCCCCC(CCCCCCCC)CC(=O)OCCCCCCCC (centres unmarked) [Example 7, octyl 3-octyl-tridecanoate] |  |  | 21.74 |  | 1.04 |  | 20.08 |  | 0.10
6 | CCCCCCCC/C=C\CCCCCCCC(=O)OCCCCCCCC [Comparative Example 4, octyl oleate, reference compound] |  |  | 19.89 |  | 1.29 |  | 15.33 |  | 0.30
7 | CCCCCCCCCCC(CCCCCCCC)CC(=O)OC (centres unmarked) [Example 1, methyl 3-octyl-tridecanoate] | did not decrease |  |  |  |  |  |  |  | 
